Test results: paper PMC6566410, “Novel Diamide-Based Benzenesulfonamides as Selective Carbonic Anhydrase IX Inhibitors Endowed with Antitumor Activity: Synthesis, Biological Evaluation and In Silico Insights” (International Journal of Molecular Sciences, 2019)

How the values were obtained:
[1] = biological target: hCA I (Homo sapiens, UniProt P00915); assay: stopped-flow CO2 hydrase assay
Description: (§3) An Applied Photophysics stopped-flow instrument was used for assaying the CA catalysed CO2 hydration activity, as reported earlier [17]. The inhibition constants were obtained by non-linear least-squares methods using PRISM 3 and the Cheng-Prusoff equation as reported earlier, and represent the mean from at least three different determinations. The four tested CA isofoms were recombinant ones obtained in-house as reported earlier [26, 27, 28, 29].

[2] = test system: SR; assay: NCI one-dose SRB assay; assay type: cell-based, human; conditions: SR (Leukemia), 1.00E-5 Molar
Description: (§1) First, all diamide-based benzenesulfonamides herein reported 5a–h were screened for their antitumor activity at one dose (10^−5 M) assay against a panel of sixty cancer cell lines through the National Cancer Institute (NCI) Developmental Therapeutic Program (www.dtp.nci.nih.gov), according to US-NCI protocol. The cell growth and cell viability were evaluated using the sulforhodamine B (SRB) colorimetric assay.
(§2) This assay was carried out according to the protocol of the Drug Evaluation Branch, NCI, Bethesda. The cell growth and cell viability were evaluated using the sulforhodamine B (SRB) colorimetric assay, as reported earlier.

[3] = test system: panel of sixty cancer cell lines; assay: NCI one-dose SRB assay, whole panel; assay type: cell-based; conditions: Homo sapiens, mean over the panel, 1.00E-5 Molar, read-out: Mean Growth Percent
Description: as §1, §2

[4] = biological target: hCA IX (Homo sapiens, UniProt Q16790); assay: stopped-flow CO2 hydrase assay; conditions: for Selectivity ratio I/IX: KI hCA I / KI hCA IX; for Selectivity ratio II/IX: KI hCA II / KI hCA IX
Description: as §3

[5] = test system: UO-31; assay: NCI one-dose SRB assay; assay type: cell-based; conditions: Homo sapiens; for activity at 10 µM: UO-31 (Renal Cancer), 1.00E-5 Molar, one dose, read-out: Growth Percent
Description: as §1
The obtained data were reported as mean-graph of the percentage growth of the different treated tumour cells (Supplementary Materials). Exploration of results for this assay confirmed that the examined diamide-based benzenesulfonamides 5a–h had non-significant activity towards most NCI cancer cell lines.
as §2

[6] = test system: SNB-19; assay: NCI one-dose SRB assay; assay type: cell-based; conditions: Homo sapiens, SNB-19 (CNS Cancer), 1.00E-5 Molar, read-out: Growth Percent
Description: as §1, §2

[7] = test system: SK-MEL-2; assay: NCI one-dose SRB assay; assay type: cell-based; conditions: Homo sapiens, SK-MEL-2 (Melanoma), 1.00E-5 Molar, read-out: Growth Percent
Description: as §1, §2

[8] = test system: SW-620; assay: NCI one-dose SRB assay; assay type: cell-based; conditions: Homo sapiens, SW-620 (Colon Cancer), 1.00E-5 Molar, read-out: Growth Percent
Description: as §1, §2

[9] = test system: MALME-3M; assay: NCI one-dose SRB assay; assay type: cell-based; conditions: Homo sapiens, MALME-3M (Melanoma), 1.00E-5 Molar, read-out: Growth Percent
Description: as §1, §2

[10] = test system: MCF7; assay: NCI one-dose SRB assay; assay type: cell-based; conditions: Homo sapiens, MCF7 (Breast Cancer), 1.00E-5 Molar, read-out: Growth Percent
Description: as §1, §2

[11] = test system: MOLT-4; assay: NCI one-dose SRB assay; assay type: cell-based; conditions: Homo sapiens, MOLT-4 (Leukemia), 1.00E-5 Molar, read-out: Growth Percent
Description: as §1, §2

[12] = test system: RPMI-8226; assay: NCI one-dose SRB assay; assay type: cell-based; conditions: Homo sapiens, RPMI-8226 (Leukemia), 1.00E-5 Molar, read-out: Growth Percent
Description: as §1, §2

[13] = test system: MDA-MB-468; assay: NCI one-dose SRB assay; assay type: cell-based; conditions: Homo sapiens, MDA-MB-468 (Breast Cancer), 1.00E-5 Molar, read-out: Growth Percent
Description: as §1, §2

[14] = test system: SK-OV-3; assay: NCI one-dose SRB assay; assay type: cell-based; conditions: Homo sapiens, SK-OV-3 (Ovarian Cancer), 1.00E-5 Molar, read-out: Growth Percent
Description: as §1, §2

[15] = test system: OVCAR-3; assay: NCI one-dose SRB assay; assay type: cell-based; conditions: Homo sapiens, OVCAR-3 (Ovarian Cancer), 1.00E-5 Molar, read-out: Growth Percent
Description: as §1, §2

[16] = test system: T-47D; assay: NCI one-dose SRB assay; assay type: cell-based; conditions: Homo sapiens, T47D, T-47D (Breast Cancer), 1.00E-5 Molar, read-out: Growth Percent
Description: as §1, §2

[17] = test system: SF-295; assay: NCI one-dose SRB assay; assay type: cell-based; conditions: Homo sapiens, SF-295 (CNS Cancer), 1.00E-5 Molar, read-out: Growth Percent
Description: as §1, §2

[18] = test system: IGROV1; assay: NCI one-dose SRB assay; assay type: cell-based; conditions: Homo sapiens, IGROV-1, IGROV1 (Ovarian Cancer), 1.00E-5 Molar, read-out: Growth Percent
Description: as §1, §2

[19] = test system: ACHN; assay: NCI one-dose SRB assay; assay type: cell-based; conditions: Homo sapiens, ACHN (Renal Cancer), 1.00E-5 Molar, read-out: Growth Percent
Description: as §1, §2

[20] = test system: COLO 205; assay: NCI one-dose SRB assay; assay type: cell-based; conditions: Homo sapiens, COLO 205 (Colon Cancer), 1.00E-5 Molar, read-out: Growth Percent
Description: as §1, §2

[21] = test system: NCI/ADR-RES; assay: NCI one-dose SRB assay; assay type: cell-based; conditions: Homo sapiens, NCI/ADR-RES (Ovarian Cancer), 1.00E-5 Molar, read-out: Growth Percent
Description: as §1, §2

[22] = test system: OVCAR-4; assay: NCI one-dose SRB assay; assay type: cell-based; conditions: Homo sapiens, OVCAR-4 (Ovarian Cancer), 1.00E-5 Molar, read-out: Growth Percent
Description: as §1, §2

[23] = test system: SK-MEL-28; assay: NCI one-dose SRB assay; assay type: cell-based; conditions: Homo sapiens, SK-MEL-28 (Melanoma), 1.00E-5 Molar, read-out: Growth Percent
Description: as §1, §2

[24] = test system: KM12; assay: NCI one-dose SRB assay; assay type: cell-based; conditions: Homo sapiens, KM12 (Colon Cancer), 1.00E-5 Molar, read-out: Growth Percent
Description: as §1, §2

[25] = test system: HS 578T; assay: NCI one-dose SRB assay; assay type: cell-based; conditions: Homo sapiens, HS 578T (Breast Cancer), 1.00E-5 Molar, read-out: Growth Percent
Description: as §1, §2

[26] = test system: OVCAR-8; assay: NCI one-dose SRB assay; assay type: cell-based; conditions: Homo sapiens, OVCAR-8 (Ovarian Cancer), 1.00E-5 Molar, read-out: Growth Percent
Description: as §1, §2

[27] = test system: SN12C; assay: NCI one-dose SRB assay; assay type: cell-based; conditions: Homo sapiens, SN12C (Renal Cancer), 1.00E-5 Molar, read-out: Growth Percent
Description: as §1, §2

[28] = test system: CCRF-CEM; assay: NCI one-dose SRB assay; assay type: cell-based; conditions: Homo sapiens, CCRF-CEM (Leukemia), 1.00E-5 Molar, read-out: Growth Percent
Description: as §1, §2

[29] = test system: MDA-MB-231/ATCC; assay: NCI one-dose SRB assay; assay type: cell-based; conditions: Homo sapiens, MDA-MB-231/ATCC (Breast Cancer), 1.00E-5 Molar, read-out: Growth Percent
Description: as §1, §2

[30] = test system: SNB-75; assay: NCI one-dose SRB assay; assay type: cell-based; conditions: Homo sapiens, SNB-75 (CNS Cancer), 1.00E-5 Molar, read-out: Growth Percent
Description: as §1, §2

Chain of hCA I (P00915 whole entry): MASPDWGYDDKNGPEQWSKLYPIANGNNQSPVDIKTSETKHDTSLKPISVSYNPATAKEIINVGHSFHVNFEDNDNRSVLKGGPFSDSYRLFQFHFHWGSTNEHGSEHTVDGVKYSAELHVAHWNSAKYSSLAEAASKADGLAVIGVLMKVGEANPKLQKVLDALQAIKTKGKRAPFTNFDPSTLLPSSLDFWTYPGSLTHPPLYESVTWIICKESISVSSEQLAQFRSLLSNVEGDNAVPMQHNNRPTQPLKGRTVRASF

Row | SMILES | Ki [1] | activity at 10 µM [3] | Ki [4] | Selectivity ratio I/IX [4] | Selectivity ratio II/IX [4] | activity at 10 µM [5] | activity at 10 µM [6] | activity at 10 µM [7] | activity at 10 µM [8] | activity at 10 µM [9] | activity at 10 µM [10] | activity at 10 µM [11] | activity at 10 µM [12] | activity at 10 µM [13] | activity at 10 µM [14] | activity at 10 µM [15] | activity at 10 µM [16] | activity at 10 µM [17] | activity at 10 µM [18] | activity at 10 µM [19] | further results
1 | Cc1ccc(C=C(NC(=O)c2ccccc2)C(=O)Nc2ccc(S(N)(=O)=O)cc2)cc1 [Compound 5d, N-(3-Oxo-3-((4-sulfamoylphenyl)amino)-1-(p-tolyl)prop-1-en-2-yl)benzamide] | 796 nM | 102% | 62.1 nM | 12.8 | 1.5 | 87% | 103% | 102% | 113% | 99% | 104% | 81.3% | 107% | 111% | 100% | 111% | 101% | 106% | 99.2% | 108% | Growth Percent [2]: 85.23%; melting point: 255 to 258 °C; activity at 10 µM [20]: 117%; activity at 10 µM [21]: 99.3%; activity at 10 µM [22]: 90.6%; activity at 10 µM [23]: 118%; activity at 10 µM [24]: 103%; activity at 10 µM [25]: 117%; activity at 10 µM [26]: 98.3%; activity at 10 µM [27]: 94.8%; activity at 10 µM [28]: 102%; activity at 10 µM [29]: 104%; activity at 10 µM [30]: 92.6%
2 | COc1ccc(C=C(NC(=O)c2ccccc2)C(=O)Nc2ccc(S(N)(=O)=O)cc2)c(OC)c1 [Compound 5f, N-(1-(2,4-Dimethoxyphenyl)-3-oxo-3-((4-sulfamoylphenyl)amino)prop-1-en-2-yl)benzamide] | 5130 nM | 103% | 73.7 nM | 69.9 | 4 | 82.5% | 102% | 102% | 107% | 104% | 87.6% | 114% | 109% | 74.8% | 101% | 113% | 101% | 110% | 91.9% | 103% | Growth Percent [2]: 95.41%; melting point: 245 to 250 °C; activity at 10 µM [20]: 118%; activity at 10 µM [21]: 109%; activity at 10 µM [22]: 104%; activity at 10 µM [23]: 109%; activity at 10 µM [24]: 109%; activity at 10 µM [25]: 106%; activity at 10 µM [26]: 100%; activity at 10 µM [27]: 94.8%; activity at 10 µM [28]: 107%; activity at 10 µM [29]: 105%; activity at 10 µM [30]: 92.9%
3 | Cc1ccc(C=C(NC(=O)c2ccccc2)C(=O)Nc2ccc(S(N)(=O)=O)cc2)o1 [Compound 5h, N-(1-(5-Methylfuran-2-yl)-3-oxo-3-((4-sulfamoylphenyl)amino)prop-1-en-2-yl)benzamide] | 8180 nM | 94.6% | 8.3 nM | 985 | 13.8 | 65.2% | 96.4% | 97.4% | 106% | 93.2% | 97.1% | 88.9% | 84.7% | 98.7% | 96.5% | 108% | 85.8% | 94.2% | 81% | 90.9% | melting point: 240 to 243 °C; inhibition at 10 µM ([5]; UO-31, one dose 10^−5 M, read-out: percentage growth inhibition (GI%)): 35%; activity at 10 µM [20]: 108%; activity at 10 µM [21]: 92.2%; activity at 10 µM [22]: 86.2%; activity at 10 µM [23]: 114%; activity at 10 µM [24]: 98.4%; activity at 10 µM [25]: 76.5%; activity at 10 µM [26]: 95.5%; activity at 10 µM [27]: 98.6%; activity at 10 µM [28]: 96.9%; activity at 10 µM [29]: 97.4%; activity at 10 µM [30]: 81.5%
4 | COc1ccc(C=C(NC(=O)c2ccccc2)C(=O)Nc2ccc(S(N)(=O)=O)cc2)cc1 [Compound 5e, N-(1-(4-Methoxyphenyl)-3-oxo-3-((4-sulfamoylphenyl)amino)prop-1-en-2-yl)benzamide] | 1010 nM | 103% | 78 nM | 12.9 | 1.5 | 86.4% | 100% | 102% | 101% | 109% | 98.5% | 104% | 107% | 108% | 97.1% | 111% | 101% | 112% | 94.5% | 102% | Growth Percent [2]: 88.45%; activity at 10 µM [20]: 110%; activity at 10 µM [21]: 106%; activity at 10 µM [22]: 111%; activity at 10 µM [23]: 106%; activity at 10 µM [24]: 106%; activity at 10 µM [25]: 102%; activity at 10 µM [26]: 99.4%; activity at 10 µM [27]: 97.1%; activity at 10 µM [28]: 106%; activity at 10 µM [29]: 110%; activity at 10 µM [30]: 95.5%
